“Also recorded” adds a separate entry of the source.
Columns and labels:
[1] = system: human leukemia cell line T-ALL1 (with WT Notch1); test: Cell cycle (PI staining, S-G2-M cells) and cell number, T-ALL1; type: cell-based
Method: FIG. 2A is a series of charts showing representative cell cycle profiles of human leukemia cell line T-ALL1 (with WT Notch1) treated with a vehicle (V) (for palbociclib (PD) or compound GD), PD (0.5 μM), or compound GD at 1, 2.5, 5, 10, and 20 μM for 6 days.
FIG. 2B is a histogram summarizing the cell cycle distribution of the T-ALL1 cell line in FIG. 2A. Data shown are mean±S.D. (n=6); *P<0.05 vs its vehicle controls, t-test.
FIG. 2C is a chart showing the percentage of S-G2-M cells in samples in FIGS. 2A and 2B. […]
(§1) Table 2: Experimental Procedures: sensitivity to CDK6 kinase activity inhibition was tested by incubating different cell lines in the presence of CDK6 inhibitor GD007/PBS for either 24 hours for detecting the status of pRB-780 phosphorylation, or 5 days for determining the effect of GD007 on cell proliferation. (1) By immunoblotting (WB), we will detect phospho-pRB-S^780, one of the substrates of CDK6 kinase; (2) By using FACS analysis, we will stain treated cells with Propidium Iodide (PI), a commonly used fluorescent intercalator, to measure the subpopulation of cell cycle to reveal any impact of CDK6 inhibition on cell proliferation; (3) cell numbers will be counted using hemocytometer.

[2] = system: human lung cancer cell line A549; test: Cell cycle (PI staining, S-G2-M cells) and pRB immunoblot, A549; type: cell-based
Method: FIG. 4A is a series of charts showing representative cell cycle profiles of human lung cancer cell line A549 treated with a vehicle (V) (for palbociclib (PD) or compound GD), PD (0.5 μM), or compound GD at 0.005, 0.05, 0.5, and 5 μM for 6 days.
FIG. 4B is a histogram showing the cell cycle distribution of A549 cell line in FIG. 4A. Data shown are mean±S.D. (n=6); *P<0.05 vs its vehicle controls, t-test.
FIG. 4C is a chart showing the percentage of S-G2-M cells in FIG. 4B. IC50 for compound GD is ca. 0.05 μM.
FIG. […] Tubulin was used as a loading control.
as §1

[3] = system: differentiated SVF cells (beige cell formation); test: Oil Red O staining of differentiated SVF cells with BAT inducers; type: cell-based; conditions: GD 5 μM, FIG. 8B
Method: FIG. 8B is an image of Oil Red O staining of differentiated SVF cells treated with a vehicle or compound GD (5 μM) in the presence of brown adipose tissue (BAT) inducers. Scale bar: 100 μM
Beige cells are associated with protection against obesity and metabolic syndrome (WO 2017/161253). Accordingly, compound GD and related compounds of the invention can be used for treating obesity and related metabolic diseases.

[4] = Fat pad mass and body weight of WT mice on normal chow diet; type: in vivo; conditions: WT (B6) mice, NCD
Method: FIGS. 9A and 9B are images showing a close view of the iWAT (FIG. 9A) and eWAT (FIG. 9B) and mass of fat pads from mice treated with GD or PBS, as indicated. The mass of various fat pads was normalized to body weight of mice on NCD at the end of experiments. Data shown are mean±S.D. (n=8 for each group), *p<0.05, t-test, GD vs PBS.
FIG. 9D is a graph showing body weight of age-matched female WT mice on NCD over 27-day observation period. GD/PBS commenced by gavage daily for 21 days at 200 mg/kg/day at age of 6-weeks-old. Body weight shown are mean±S.D. (n=8 for each group), *p<0.05, t-test, GD vs PBS.

Prostate Cancer: DU145 = test: pRB-780 immunoblot, DU145; type: cell-based; conditions: WB: P-RB-780
Method: as §1

[5] = 200 mg/kg/day for 21 days, normalized to body weight

CC(=O)c1c(C)c2cnc(Nc3nc(CN4CCNCC4)cs3)nc2[nH]c1=O [Compound GD, 6-acetyl-5-methyl-2-((4-(piperazin-1-ylmethyl)thiazol-2-yl)amino)pyrido[2,3-d]pyrimidin-7(8H)-one]
IC50 ([1]; Homo sapiens, TALL-1, 144 h, T-ALL1, 6 days, read-out: IC50 (percentage of S-G2-M cells, growth inhibition)): ~1100 nM | Compound GD Efficacy ([1]; Leukemic cells: TALL1, PI Staining, and cell number counting): Efficacious | growth of lung cancer cell line A549 ([2]; FIGS. 4A-4D): inhibits growth | IC50 ([2]; Homo sapiens, 144 h, A549, 6 days, read-out: IC50 (percentage of S-G2-M cells)): ~50 nM | Compound GD Efficacy ([2]; Lung Cancer: A549, WB: P-RB-780, PI staining): Efficacious | beige cell formation [3]: induced beige cell formation | body weight, most significant reduction compared to PBS treated mice ([4]; 200 mg/kg/day): 7.1 % reduction | fat pad mass vs PBS-treated mice ([4]; 200 mg/kg/day by gavage for 21 days, 200 mg/kg/day): dramatically and significantly decreased; also recorded: reduced fat mass | fat pad mass, eWAT, reduction vs PBS-treated mice [4, 5]: ~2.0 fold reduction | fat pad mass, iWAT, reduction vs PBS-treated mice [4, 5]: ~1.42 fold reduction | Compound GD Efficacy (Prostate Cancer: DU145): No

Reference: patent US12312346B2, “Pyridopyrimidine compounds and methods of their use” (Tufts Medical Center, Inc., priority 2018, dated 2025)
